Several values for one entry are separate records, joined by “and”; a condition that tells them apart may be missing. Identical values can stand only once. Inconclusive results and toxic doses are left out. Rule as the data show it: active = T/C of 150% or more; inactive = T/C below 125%.
Test system: L1210 leukemia ip in BDF1 mice, survival T/C
Experiment: NCI In Vivo Anticancer Drug Screen. Data for tumor model L1210 Leukemia (intraperitoneal) in B6D2F1 (BDF1) mice
Conditions: endpoint: mean survival time, higher = longer survival
Outline: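 Tumor was transplanted into mice, which were then dosed with test compound or vehicle alone. Survival was recorded for each group, and the treated figure was expressed relative to the control figure.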

[1] = dose: 100.0 mg/kg/injection, schedule: Q01DX009 (ip), vehicle: Klucel (hydroxypropylcellulose) (HPC)
[2] = dose: 100.0 mg/kg/injection, schedule: Q04DX003 (ip), vehicle: Klucel (hydroxypropylcellulose) (HPC)
[3] = dose: 200.0 mg/kg/injection, schedule: Q01DX009 (ip), vehicle: Klucel (hydroxypropylcellulose) (HPC)
[4] = dose: 400.0 mg/kg/injection, schedule: Q01DX009 (ip), vehicle: Klucel (hydroxypropylcellulose) (HPC)
[5] = dose: 100.0 mg/kg/injection, schedule: Q01DX001 (ip), vehicle: carboxymethylcellulose (CMC)
[6] = dose: 200.0 mg/kg/injection, schedule: Q01DX001 (ip), vehicle: carboxymethylcellulose (CMC)
[7] = dose: 400.0 mg/kg/injection, schedule: Q01DX001 (ip), vehicle: carboxymethylcellulose (CMC)
[8] = dose: 100.0 mg/kg/injection, schedule: Q01DX001 (ip), vehicle: Klucel (hydroxypropylcellulose) (HPC)
[9] = dose: 200.0 mg/kg/injection, schedule: Q01DX001 (ip), vehicle: Klucel (hydroxypropylcellulose) (HPC)
[10] = dose: 400.0 mg/kg/injection, schedule: Q01DX001 (ip), vehicle: Klucel (hydroxypropylcellulose) (HPC)
[11] = dose: 100.0 mg/kg/injection, schedule: Q04DX003 (ip), vehicle: saline with Tween-80
[12] = dose: 200.0 mg/kg/injection, schedule: Q04DX003 (ip), vehicle: saline with Tween-80
[13] = dose: 400.0 mg/kg/injection, schedule: Q04DX003 (ip), vehicle: saline with Tween-80
[14] = dose: 100.0 mg/kg/injection, schedule: Q04DX002 (ip), vehicle: Klucel (hydroxypropylcellulose) (HPC)
[15] = dose: 200.0 mg/kg/injection, schedule: Q04DX002 (ip), vehicle: Klucel (hydroxypropylcellulose) (HPC)
[16] = dose: 400.0 mg/kg/injection, schedule: Q04DX002 (ip), vehicle: Klucel (hydroxypropylcellulose) (HPC)
[17] = dose: 100.0 mg/kg/injection, schedule: Q01DX001 (ip), vehicle: other

Measured: T/C

CC(C)CN=C(N)N=C(N)N
inactive: dose: 50.0 mg/kg/injection, schedule: Q01DX009 (ip), vehicle: water 95 % of control | dose: 50.0 mg/kg/injection, schedule: Q04DX003 (ip), vehicle: water 102 % of control | dose: 100.0 mg/kg/injection, schedule: Q01DX001 (ip), vehicle: water 96 % of control | dose: 100.0 mg/kg/injection, schedule: Q01DX009 (ip), vehicle: water 97 % of control | dose: 100.0 mg/kg/injection, schedule: Q04DX003 (ip), vehicle: water 104 % of control | dose: 200.0 mg/kg/injection, schedule: Q01DX001 (ip), vehicle: water 103 % of control | dose: 200.0 mg/kg/injection, schedule: Q04DX003 (ip), vehicle: water 107 % of control

CN1C2CCC1CC(=O)C2
inactive: dose: 75.0 mg/kg/injection, schedule: Q01DX001 (ip), vehicle: saline 103 % of control | dose: 150.0 mg/kg/injection, schedule: Q01DX001 (ip), vehicle: saline 102 % of control

O=C(Nc1ccc(Nc2ccccc2)cc1)c1ccc(F)cc1
inactive: dose: 100.0 mg/kg/injection, schedule: Q01DX009 (ip), vehicle: gum acacia 91 % of control | dose: 200.0 mg/kg/injection, schedule: Q01DX009 (ip), vehicle: gum acacia 96 % of control | dose: 400.0 mg/kg/injection, schedule: Q01DX009 (ip), vehicle: gum acacia 94 % of control

NC(=O)CNC(=O)C(CSCc1ccccc1)NC(=O)OCc1ccccc1 (configuration not stated)
inactive: dose: 25.0 mg/kg/injection, schedule: Q01DX009 (ip), vehicle: Klucel (hydroxypropylcellulose) (HPC) 89 % of control | dose: 50.0 mg/kg/injection, schedule: Q01DX009 (ip), vehicle: Klucel (hydroxypropylcellulose) (HPC) 93 % of control | [1] 94 % of control | [2] 90 % of control

O=C(Nc1cc(C(F)(F)F)ccc1Cl)c1ccc(Cl)cc1
inactive: [1] 110 % of control | dose: 100.0 mg/kg/injection, schedule: Q04DX003 (ip), vehicle: saline 103 % of control | [3] 94 % of control | dose: 200.0 mg/kg/injection, schedule: Q04DX003 (ip), vehicle: saline 114 % of control | [4] 94 % of control | dose: 400.0 mg/kg/injection, schedule: Q04DX003 (ip), vehicle: saline 106 % of control

C[N+]1=NN(c2nc[nH]c2C(N)=O)CC1
inactive: dose: 100.0 mg/kg/injection, schedule: Q04DX002 (ip), vehicle: saline 96 % of control | dose: 200.0 mg/kg/injection, schedule: Q04DX002 (ip), vehicle: saline 100 % of control | dose: 400.0 mg/kg/injection, schedule: Q04DX002 (ip), vehicle: saline 115 % of control

Cc1ccc([N+](=O)[O-])cc1NC(=O)c1ccccc1
inactive: [5] 93 % of control | [6] 96 % of control | [7] 93 % of control

C1=CC2c3ccccc3C1c1ccccc12
inactive: dose: 100.0 mg/kg/injection, schedule: Q01DX009 (sc), vehicle: olive oil, sesame oil, peanut oil 101 % of control | dose: 100.0 mg/kg/injection, schedule: Q04DX003 (sc), vehicle: olive oil, sesame oil, peanut oil 102 % of control | dose: 200.0 mg/kg/injection, schedule: Q01DX009 (sc), vehicle: olive oil, sesame oil, peanut oil 103 % of control | dose: 200.0 mg/kg/injection, schedule: Q04DX003 (sc), vehicle: olive oil, sesame oil, peanut oil 95 % of control | dose: 400.0 mg/kg/injection, schedule: Q01DX009 (sc), vehicle: olive oil, sesame oil, peanut oil 102 % of control | dose: 400.0 mg/kg/injection, schedule: Q04DX003 (sc), vehicle: olive oil, sesame oil, peanut oil 93 % of control

O=C1CS/C(=N/N=C/c2ccccc2)N1
inactive: dose: 50.0 mg/kg/injection, schedule: Q01DX009 (ip), vehicle: saline with Tween-80 104 % of control | dose: 100.0 mg/kg/injection, schedule: Q01DX009 (ip), vehicle: saline with Tween-80 91 % of control | dose: 200.0 mg/kg/injection, schedule: Q01DX009 (ip), vehicle: saline with Tween-80 95 % of control

CCOC(=O)Nc1cc(NC(c2ccccc2)c2ccccc2)c([N+](=O)[O-])c(NC(=O)OCC)n1
inactive: [5] 97 % of control | [6] 92 % of control | [7] 92 % of control

CC(=O)NC1CCC(C(F)(F)F)CC1 (configuration not stated)
inactive: [8] 93 % of control and 96 % of control | [9] 95 % of control and 98 % of control | [10] 106 % of control and 98 % of control

Cc1ccc(N=C(C(=Nc2ccc(C)cc2)c2ccccc2)c2ccccc2)cc1
inactive: [11] 91 % of control | [12] 90 % of control | [13] 88 % of control

N/C(=N\N=C\c1ccccn1)c1ccccn1
inactive: dose: 10.0 mg/kg/injection, schedule: Q01DX001 (ip), vehicle: water 93 % of control

O=[N+]([O-])c1cc(C(F)(F)F)ccc1/C=C/c1ccccc1Br
inactive: [11] 105 % of control | [12] 97 % of control | [13] 101 % of control

O=C1OCC/C1=C/OCCCCO/C=C1/CCOC1=O
inactive: [14] 97 % of control | [15] 97 % of control | [16] 94 % of control

CC(=O)OC1CCC(OC(C)=O)C(C#N)(C#N)C1(C#N)C#N (configuration not stated)
inactive: [11] 104 % of control | [12] 93 % of control

O=C(NCCc1ccccc1)C1CCN(CCc2ccccc2)CC1
inactive: [17] 107 % of control

CCOC(=O)c1ccc(NC(=O)Oc2cc(C)c(Cl)c(C)c2)cc1
inactive: [1] 95 % of control | [3] 90 % of control | [4] 96 % of control

CC(=O)Nc1ccc(Cc2ccc(NC(C)=O)cc2)cc1
inactive: dose: 75.0 mg/kg/injection, schedule: Q01DX001 (ip), vehicle: Klucel (hydroxypropylcellulose) (HPC) 93 % of control | [11] 101 % of control | dose: 150.0 mg/kg/injection, schedule: Q01DX001 (ip), vehicle: Klucel (hydroxypropylcellulose) (HPC) 100 % of control | [12] 93 % of control | dose: 300.0 mg/kg/injection, schedule: Q01DX001 (ip), vehicle: Klucel (hydroxypropylcellulose) (HPC) 98 % of control | [13] 97 % of control

O=C(Nc1ccc([N+](=O)[O-])cc1Cl)SCc1ccccc1
inactive: [8] 96 % of control | [1] 94 % of control and 101 % of control | [14] 95 % of control and 105 % of control | [2] 92 % of control | [9] 96 % of control | [3] 97 % of control and 106 % of control | [15] 103 % of control and 105 % of control | dose: 200.0 mg/kg/injection, schedule: Q04DX003 (ip), vehicle: Klucel (hydroxypropylcellulose) (HPC) 95 % of control | [10] 96 % of control | [16] 94 % of control and 95 % of control | dose: 400.0 mg/kg/injection, schedule: Q04DX003 (ip), vehicle: Klucel (hydroxypropylcellulose) (HPC) 92 % of control

Cc1cc(Cl)c(Cl)cc1NC(=O)Nc1cccc(C(F)(F)F)c1
inactive: dose: 100.0 mg/kg/injection, schedule: Q01DX009 (ip), vehicle: carboxymethylcellulose (CMC) 93 % of control | dose: 200.0 mg/kg/injection, schedule: Q01DX009 (ip), vehicle: carboxymethylcellulose (CMC) 91 % of control | dose: 400.0 mg/kg/injection, schedule: Q01DX009 (ip), vehicle: carboxymethylcellulose (CMC) 102 % of control

O=C(OCCOC(=O)c1cccc([N+](=O)[O-])c1)c1cccc([N+](=O)[O-])c1
inactive: [17] 95 % of control | dose: 200.0 mg/kg/injection, schedule: Q01DX001 (ip), vehicle: other 96 % of control | dose: 400.0 mg/kg/injection, schedule: Q01DX001 (ip), vehicle: other 96 % of control

CN(C)N=Nc1ccc(S(C)(=O)=O)cc1
inactive: dose: 25.0 mg/kg/injection, schedule: Q04DX002 (ip), vehicle: saline with Tween-80 105 % of control | dose: 50.0 mg/kg/injection, schedule: Q04DX002 (ip), vehicle: saline with Tween-80 102 % of control | dose: 100.0 mg/kg/injection, schedule: Q04DX002 (ip), vehicle: saline with Tween-80 102 % of control and 106 % of control | dose: 200.0 mg/kg/injection, schedule: Q04DX002 (ip), vehicle: saline with Tween-80 116 % of control | dose: 400.0 mg/kg/injection, schedule: Q04DX002 (ip), vehicle: saline with Tween-80 97 % of control

From PubChem BioAssay AID248 (DTP/NCI, 2004)
